Data published in paper PMC10673250, “Exploring Alkyl Ester Salts of L-Amino Acid Derivatives of Ibuprofen: Physicochemical Characterization and Transdermal Potential” (Molecules, 2023).
In brackets after ≈: the same amount, converted by molar mass. Several values for one entry are separate records, joined by “and”; a condition that tells them apart may be missing. Equal values may be shown once. Where a name gives a salt, the structure may show the parent alone. Read-outs that look alike come from different tables or passages of the source.

What was measured:
[1] = Solubility in water (saturated solutions, HPLC); assay type: physicochemical; conditions: water at 25 °C
Description: Water solubility was determined by obtaining saturated solutions of the obtained ibuprofenates. For this purpose, the appropriate amount of ibuprofen salt was weighed in a vial, poured with deionized water, and stirred vigorously on a magnetic stirrer at 25 °C for 24 h. After this time, the mixture was filtered using a syringe filter made of MCE (mixed cellulose esters) with a pore diameter 0.45 µm. Then, the filtrate was diluted one hundred times with acetonitrile: water solution (1:1). The concentration of the compound was determined by the HPLC method described in Section 3.2.9.

[2] = Partition coefficient n-octanol/water (shake-flask, HPLC); assay type: physicochemical; conditions: 25 °C
Description: For L-glutamic acid alkyl ester ibuprofenates, the partition coefficient was determined using n-octanol/water extraction. For this purpose, 10 mg of the substance, weighed with an accuracy of 0.01 mg, was mixed with 5 cm^3 of water saturated with n-octanol and 5 cm^3 of n-octanol saturated with water. The mixture was stirred vigorously at 25 °C for 3 h and then centrifuged at 7500 rpm·min^−1 at 25 °C for 10 min to separate the phases. The phases were then separated. The concentration of the compound was determined in the aqueous layer using the HPLC method (standard curve method).
The partition coefficient log P was calculated based on Equation (3):(3) logP=logcoct−logcw where: • cw and coct are the concentrations (mg·dm^−3) of the solute in the aqueous and octanol layers.
The concentration of the compound dissolved in octanol was calculated from Equation (4):(4) coct=c0−cw where: • c0 is the concentration of the compound calculated based on sample weights prepared for analysis.
The concentration of the substance in the aqueous layer was determined using the SHIMADZU Nexera-i LC-2040C 3D High Plus high-performance liquid chromatography method with a DAD/FLD detector. A mixture of 50% acetonitrile and 50% water was used as the moving fluid under isocratic conditions at a 1 cm^3·min^−1 flow rate. A Kinetex® 2.6 µm F5 100 Å column heated to 35 °C with dimensions of 150 × 4.6 mm^2 from Phenomenex was used. The spectra were recorded at a wavelength of 210 nm. The injection volume for these samples was 50 mm^3. Each measurement was performed three times, and the results were averaged. The concentration of ibuprofen and its salts was calculated from peak area measurements using the calibration curve method (Figure 8). The results were analyzed using LabSolutions/LC Solution System.

[3] = Permeability of the active substance through pig skin, Franz diffusion chambers, in vitro; conditions: for Jss, steady-state flux: 1% IBU in 70% ethanol, 37 °C; for Jss, steady-state flux / CMP (cumulative permeation mass) / Q%24h, the percentage of the applied dose / LT, lag time: n = 3; for CMP (cumulative permeation mass) / Q%24h, the percentage of the applied dose: 24 h
Description: Tests for the penetration of the active substance through pig skin were performed using Franz diffusion chambers (Phoenix DB-6, ABL&E-JASCO, Vienna, Austria) with diffusion areas of 1 cm^2 according to the modified method [15].
Pig skin obtained from the belly was purchased from a local slaughterhouse. The outer layer, 0.5 mm thick, was then removed using a dermatome and cut into 2 cm × 2 cm pieces. Before use in the study, the skin was soaked in buffered saline (PBS) solution at pH 7.4.
Skin impedance assessment was performed using an LCR meter 4080 (Voltcraft LCR 4080, Conrad Electronic, Hirschau, Germany), which was operated in parallel mode at an alternating frequency of 120 Hz (error for kΩ values < 0.5%). The measurements were made by placing the tips of the measurement probes in the donor and acceptor chambers, separated by a skin sample. Both chambers were filled with PBS buffer pH 7.4. Skin samples with an impedance > 3 kΩ were used for testing, which corresponds to the electrical resistance of human skin [15, 18].
The acceptor chamber with a capacity of 10 cm^3 was filled with PBS solution (pH 7.4). A total of 1 cm^3 of a solution of ibuprofen or L-amino acid alkyl ester ibuprofenate with a concentration of 1% based on the active substance (ibuprofen) in 70% ethanol was placed in the acceptor chamber.
The experiment was conducted for 24 h at 37 °C. After 0.5 h, 1 h, 2 h, 3 h, 4 h, 5 h, 8 h, and 24 h from the start of the permeation experiment, 0.5 cm^3 samples of the acceptor fluid were taken, respectively, and refilled with fresh PBS solution. The content of ibuprofen or its salts in the acceptor liquid was determined by HPLC. Based on this concentration, the cumulative mass expressed as ibuprofen was calculated (µg IBU·cm^−2) [3, 19, 20, 21, 22].
The constant flow coefficient (in µg IBU·cm^−2·h^−1) through the pig skin into the acceptor fluid was determined as the slope of the plot of accumulated mass in the acceptor fluid as a function of time.
Steady-state flow was estimated from the slope of the linear part of the plot of accumulated mass in the acceptor phase over time. The lag time (LT) was determined based on the x-intercept of the linear part of the graph of accumulated mass in the acceptor phase over time. It was then used to calculate the permeability coefficient Kp using Equation (6):(6) Kp=Jss/C where: • C—concentration in the donor phase (µg·cm^−3).
The diffusion coefficient (D) was calculated based on Equation (7):(7) D=I^2/6·LT where: • I—diffusion path, skin thickness (mm).
The skin partition coefficient (Km) was calculated based on Equation (8):(8) Km=Kp·I/D

[4] = Accumulation in the skin after the permeation test, in vitro; assay type: in vitro ADME, pig; conditions: after 24 h permeation; for accumulation in pig skin: mean ± SD, n = 3
Description: After completing the permeation test, the skin was removed from the Franz chamber, then washed with 0.5% sodium lauryl sulfate solution and dried with a paper towel. After being thoroughly air-dried, the leather was cut into pieces and extracted with 2 cm^3 of methanol for 24 h at 4 °C. Then, the samples were homogenized using a homogenizer (IKA®T18 digital ULTRA TURRAX, Staufen, Germany) for 3 min and centrifuged at 3500 rpm·min^−1 for 5 min. After centrifugation, the solution was analyzed by HPLC. The accumulation of IBU and its salts in pig skin was calculated by dividing the amount of substance remaining in the samples by the weight of the skin sample and it was expressed as the weight of IBU per gram of skin (µg IBU·g^−1).

[5] = Thermogravimetric analysis (thermal stability); assay type: physicochemical
Description: Thermal stability was assessed using thermogravimetric studies performed on a […]1 Libra thermomicrobalance (Selb, Germany). The test was carried out in an oxidizing environment, with the flow of nitrogen (protective gas): 10 cm^3·min^-1, air: 25 cm^3·min^-1 in the temperature range from 25 to 1000 °C. Samples weighing approximately 5 mg were heated at 10 °C·min^-1. The decomposition onset temperature (Tonset) was calculated using the intersection of the tangents of the TG curve. The fastest decomposition temperatures (Tmax) were calculated using the first TG curve (DTG curve) derivative.

[6] = pig skin, concentration 0.01 g·cm^−3; cited from earlier work
[7] = administered on an empty stomach, 71 healthy adults; cited from earlier work
[8] = in terms of the active substance (ibuprofen)
[9] = TG, oxidizing environment, 10 °C·min^−1

SMILES | Solubility in Water ([1]; as compound) | Solubility in Water [1, 8] | log P [2] | Jss, steady-state flux [3] | CMP (cumulative permeation mass) [3] | Q%24h, the percentage of the applied dose [3] | Tonset, the onset temperature of the thermal degradation [5] | Tonset, the onset temperature of the thermal degradation [5, 9] | also measured
CC(C)Cc1ccc(C(C)C(=O)O)cc1.CCCCCOC(=O)C(N)CCC(=O)O (stereo not drawn) [[Glu(OPent)][IBU]] | 0.208 ± 0.024 g·dm^−3 | 0.101 ± 0.012 g IBU·dm^−3 | 2.459 ± 0.002 | 57.098 µg IBU·cm^−2·h^−1 and 57.098 ± 29.761 µg IBU·cm^−2·h^−1 | 0.101 ± 0.012 g IBU·dm^−3 | 0.582 ± 0.047% | 206.9 °C |  | permeation rate relative to ibuprofen ([3]; within the first two hours): twice as high as ibuprofen; accumulation in pig skin [4]: 625.895 ± 87.275 µg IBU·g^−1 pig skin
CC(C)OC(=O)CCC(N)C(=O)OC(C)C (stereo not drawn) [[Glu(OiPr)2][HCl]] |  |  |  |  |  |  |  | 174.4 °C | 
CC(C)Cc1ccc(C(C)C(=O)O)cc1 (racemic) [IBU, (RS)-2-[4-(2-methylpropyl)phenyl]propionic acid, reference compound] |  | 0.075 ± 0.001 g IBU·dm^−3 |  | 26.539 ± 0.320 µg IBU·cm^−2·h^−1 |  | 0.302 ± 0.038% |  |  | solubility at 24 h ([1]; deionized water, as compound): 75 ± 1 µg/mL (≈ 364 µM); skin penetration rate [6]: 6%; logP [2]: 3.37; LT, lag time [3]: 0.153 ± 0.029 h; D·10^4, diffusion coefficient ([3]; n = 3, value is D·10^4): 27.926 ± 5.802 cm^2·h^−1; accumulation in pig skin [4]: 1057.468 ± 200.589 µg IBU·g^−1 pig skin
CC(C)Cc1ccc(C(C)C(=O)[O-])cc1.[Na+] (stereo not drawn) [IBUNa] |  |  |  |  |  |  |  |  | Cmax higher compared to rac-IBU [7]: approximately 30%
CC(C)Cc1ccc(C(C)C(=O)O)cc1.CC(C)OC(=O)C(N)CCC(=O)O (stereo not drawn) [[Glu(OiPr)][IBU]] | 0.390 ± 0.011 g·dm^−3 | 0.203 ± 0.006 g IBU·dm^−3 | 2.860 ± 0.007 | 23.298 ± 3.459 µg IBU·cm^−2·h^−1 |  | 0.373 ± 0.0175% | 222.9 °C |  | solubility relative to ibuprofen (standard) ([1]; per active mass of ibuprofen): approximately three times higher; penetrated better than ibuprofen ([3]; versus ibuprofen): ~40%
CC(C)Cc1ccc(C(C)C(=O)O)cc1.CCC(C)OC(=O)C(N)CCC(=O)O (stereo not drawn) [[Glu(Osec-Bu)][IBU]] | 0.185 ± 0.024 g·dm^−3 | 0.093 ± 0.012 g IBU·dm^−3 | 3.191 ± 0.007 | 22.296 ± 1.398 µg IBU·cm^−2·h^−1 | 0.093 ± 0.012 g IBU·dm^−3 | 0.456 ± 0.048% | 204.2 °C |  | 
CCOC(=O)CCC(N)C(=O)OCC (stereo not drawn) [[Glu(OEt)2][HCl]] |  |  |  |  |  |  |  | 168.3 °C | 
CCCCCOC(=O)CCC(N)C(=O)OCCCCC (stereo not drawn) [[Glu(OPent)2][HCl]] |  |  |  |  |  |  |  | 169.5 °C | 
CCC(C)OC(=O)CCC(N)C(=O)OC(C)CC (stereo not drawn) [[Glu(Osec-Bu)2][HCl]] |  |  |  |  |  |  |  | 181.5 °C | 
CC(C)Cc1ccc(C(C)C(=O)O)cc1.CCOC(=O)C(N)CCC(=O)O (stereo not drawn) [[Glu(OEt)][IBU]] | 0.185 ± 0.003 g·dm^−3 | 0.100 ± 0.001 g IBU·dm^−3 | 2.37 and 2.374 ± 0.001 | 30.855 ± 6.617 µg IBU·cm^−2·h^−1 | 0.100 ± 0.001 g IBU·dm^−3 | 0.566 ± 0.005% | 194.2 °C |  | permeation rate difference compared to [Glu(OPent)][IBU] ([3]; after 24 h): approximately 0.5 μg∙h^−1; LT, lag time [3]: 0.029 ± 0.050 h
CCCCOC(=O)CCC(N)C(=O)OCCCC (stereo not drawn) [[Glu(OBu)2][HCl]] |  |  |  |  |  |  |  | 172.8 °C | 
CC(C)Cc1ccc(C(C)C(=O)O)cc1.CCCCOC(=O)C(N)CCC(=O)O (stereo not drawn) [[Glu(OBu)][IBU]] | 0.217 ± 0.007 g·dm^−3 | 0.109 ± 0.004 g IBU·dm^−3 | 3.000 ± 0.010 | 32.282 ± 7.809 µg IBU·cm^−2·h^−1 | 0.109 ± 0.004 g IBU·dm^−3 | 0.452 ± 0.026% | 206.8 °C |  | LT, lag time [3]: 0.102 ± 0.069 h; accumulated mass relative to ibuprofen [4]: approximately 90%; accumulation in pig skin [4]: 931.823 ± 93.449 µg IBU·g^−1 pig skin
CCCOC(=O)CCC(N)C(=O)OCCC (stereo not drawn) [[Glu(Opr)2][HCl]] |  |  |  |  |  |  |  | 170.5 °C | 
CC(C)Cc1ccc(C(C)C(=O)O)cc1.CCCOC(=O)C(N)CCC(=O)O (stereo not drawn) [[Glu(OPr)][IBU]] | 0.230 ± 0.007 g·dm^−3 | 0.120 ± 0.004 g IBU·dm^−3 | 2.380 ± 0.003 | 26.451 ± 2.253 µg IBU·cm^−2·h^−1 | 0.120 ± 0.004 g IBU·dm^−3 | 0.506 ± 0.008% | 199.7 °C |  | 
